Laboratory results reported in ChEMBL document CHEMBL4507262, “Data for DCP probe A-1596586” (2021).

Assays:
[1] = biological target: Dual specificity tyrosine-phosphorylation-regulated kinase 1B (Homo sapiens) (UniProt Q9Y463); settings: Compound concentration 1000.0 nM
[2] = tested on: Proto-oncogene tyrosine-protein kinase receptor Ret (Homo sapiens), P07949 [V804L]; settings: Compound concentration 1000.0 nM
[3] = biological target: NUAK family SNF1-like kinase 1 (Homo sapiens) (UniProt O60285); settings: Compound concentration 1000.0 nM
[4] = biological target: Dual specificity protein kinase CLK3 (Homo sapiens) (UniProt P49761); settings: Compound concentration 1000.0 nM
[5] = biological target: Receptor-type tyrosine-protein kinase FLT3 (Homo sapiens) (UniProt P36888); settings: Compound concentration 1000.0 nM
[6] = biological target: Phosphatidylinositol 4-phosphate 5-kinase type-1 alpha (Homo sapiens) (UniProt Q99755); settings: Compound concentration 1000.0 nM
[7] = biological target: Serine/threonine-protein kinase SIK3 (Homo sapiens) (UniProt Q9Y2K2); settings: Compound concentration 1000.0 nM
[8] = biological target: Serine/threonine-protein kinase PLK4 (Homo sapiens) (UniProt O00444); settings: Compound concentration 1000.0 nM
[9] = biological target: Mitogen-activated protein kinase 7 (Homo sapiens) (UniProt Q13164); settings: Compound concentration 1000.0 nM
[10] = biological target: Histamine H1 receptor (Homo sapiens) (UniProt P35367); test: H1 (h) Eurofins-Cerep binding assay; design: ligand concentration 1 nM; settings: filed as antagonist, Compound concentration 10.0 uM
[11] = biological target: Delta-type opioid receptor (Homo sapiens) (UniProt P41143); test: delta (DOP) (h) Eurofins-Cerep binding assay; design: ligand concentration 0.5 nM; settings: filed as agonist, Compound concentration 10.0 uM
[12] = biological target: Mitogen-activated protein kinase kinase kinase 6 (Homo sapiens) (UniProt O95382); settings: Compound concentration 1000.0 nM
[13] = biological target: Serine/threonine-protein kinase MRCK alpha (Homo sapiens) (UniProt Q5VT25); settings: Compound concentration 1000.0 nM
[14] = tested on: Tyrosine-protein kinase ABL1 (Homo sapiens), P00519 [F317I]; settings: Compound concentration 1000.0 nM
[15] = biological target: Serine/threonine-protein kinase pim-3 (Homo sapiens) (UniProt Q86V86); settings: Compound concentration 1000.0 nM
[16] = biological target: Mitogen-activated protein kinase kinase kinase kinase 5 (Homo sapiens) (UniProt Q9Y4K4); settings: Compound concentration 1000.0 nM
[17] = tested on: Mast/stem cell growth factor receptor Kit (Homo sapiens), P10721 [V559D,V654A]; settings: Compound concentration 1000.0 nM
[18] = biological target: cAMP-dependent protein kinase catalytic subunit beta (Homo sapiens) (UniProt P22694); settings: Compound concentration 1000.0 nM
[19] = biological target: Serine/threonine-protein kinase OSR1 (Homo sapiens) (UniProt O95747); settings: Compound concentration 1000.0 nM
[20] = biological target: Serine/threonine-protein kinase MRCK gamma (Homo sapiens) (UniProt Q6DT37); settings: Compound concentration 1000.0 nM
[21] = biological target: Rhodopsin kinase GRK7 (Homo sapiens) (UniProt Q8WTQ7); settings: Compound concentration 1000.0 nM
[22] = biological target: Serine/threonine-protein kinase N2 (Homo sapiens) (UniProt Q16513); settings: Compound concentration 1000.0 nM
[23] = tested on: Phosphatidylinositol 4,5-bisphosphate 3-kinase catalytic subunit alpha isoform (Homo sapiens), P42336 [H1047Y]; settings: Compound concentration 1000.0 nM
[24] = biological target: Casein kinase I isoform alpha (Homo sapiens) (UniProt P48729); settings: Compound concentration 1000.0 nM
[25] = biological target: Cyclin-dependent kinase 4 (Homo sapiens) (UniProt P11802); settings: Compound concentration 1000.0 nM
[26] = biological target: Inhibitor of nuclear factor kappa-B kinase subunit alpha (Homo sapiens) (UniProt O15111); settings: Compound concentration 1000.0 nM
[27] = biological target: T1, Alpha-1B adrenergic receptor (Homo sapiens) (UniProt P35368); settings: Compound concentration 10.0 uM
T1 sequence (whole entry): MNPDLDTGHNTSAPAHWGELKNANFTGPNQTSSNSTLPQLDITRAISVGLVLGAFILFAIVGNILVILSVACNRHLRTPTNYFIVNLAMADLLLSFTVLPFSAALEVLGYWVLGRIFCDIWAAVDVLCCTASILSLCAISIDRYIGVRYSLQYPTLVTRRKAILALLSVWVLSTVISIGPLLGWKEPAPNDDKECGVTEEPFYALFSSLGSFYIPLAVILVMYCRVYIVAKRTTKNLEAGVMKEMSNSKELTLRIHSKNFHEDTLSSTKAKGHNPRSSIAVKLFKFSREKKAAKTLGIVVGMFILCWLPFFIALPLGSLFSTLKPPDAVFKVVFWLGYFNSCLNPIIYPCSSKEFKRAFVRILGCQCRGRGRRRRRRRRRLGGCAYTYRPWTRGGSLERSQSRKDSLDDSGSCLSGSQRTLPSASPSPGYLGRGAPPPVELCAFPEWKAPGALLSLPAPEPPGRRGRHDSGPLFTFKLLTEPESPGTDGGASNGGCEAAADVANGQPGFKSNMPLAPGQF

[28] = biological target: Serine/threonine-protein kinase WNK2 (Homo sapiens) (UniProt Q9Y3S1); settings: Compound concentration 1000.0 nM
[29] = biological target: Endothelin receptor type B (Homo sapiens) (UniProt P24530); test: ETB (h) Eurofins-Cerep binding assay; design: ligand concentration 0.03 nM; settings: filed as agonist, Compound concentration 10.0 uM
[30] = biological target: Vascular endothelial growth factor receptor 1 (Homo sapiens) (UniProt P17948); settings: Compound concentration 1000.0 nM
[31] = biological target: Serine/threonine-protein kinase DCLK3 (Homo sapiens) (UniProt Q9C098); settings: Compound concentration 1000.0 nM
[32] = biological target: RAC-alpha serine/threonine-protein kinase (Homo sapiens) (UniProt P31749); settings: Compound concentration 1000.0 nM
[33] = biological target: Protein-tyrosine kinase 6 (Homo sapiens) (UniProt Q13882); settings: Compound concentration 1000.0 nM
[34] = biological target: Proto-oncogene tyrosine-protein kinase Src (Homo sapiens) (UniProt P12931); settings: Compound concentration 1000.0 nM
[35] = biological target: Protein kinase C theta type (Homo sapiens) (UniProt Q04759); settings: Compound concentration 1000.0 nM
[36] = biological target: Tyrosine-protein kinase ZAP-70 (Homo sapiens) (UniProt P43403); settings: Compound concentration 1000.0 nM
[37] = biological target: Glucocorticoid receptor (Homo sapiens) (UniProt P04150); test: GR (h) Eurofins-Cerep binding assay; design: ligand concentration 1.5 nM; settings: filed as agonist, Compound concentration 10.0 uM
[38] = biological target: Serine/threonine-protein kinase haspin (Homo sapiens) (UniProt Q8TF76); settings: Compound concentration 1000.0 nM

Sequence of Vascular endothelial growth factor receptor 1 (Homo sapiens) (P17948 whole entry): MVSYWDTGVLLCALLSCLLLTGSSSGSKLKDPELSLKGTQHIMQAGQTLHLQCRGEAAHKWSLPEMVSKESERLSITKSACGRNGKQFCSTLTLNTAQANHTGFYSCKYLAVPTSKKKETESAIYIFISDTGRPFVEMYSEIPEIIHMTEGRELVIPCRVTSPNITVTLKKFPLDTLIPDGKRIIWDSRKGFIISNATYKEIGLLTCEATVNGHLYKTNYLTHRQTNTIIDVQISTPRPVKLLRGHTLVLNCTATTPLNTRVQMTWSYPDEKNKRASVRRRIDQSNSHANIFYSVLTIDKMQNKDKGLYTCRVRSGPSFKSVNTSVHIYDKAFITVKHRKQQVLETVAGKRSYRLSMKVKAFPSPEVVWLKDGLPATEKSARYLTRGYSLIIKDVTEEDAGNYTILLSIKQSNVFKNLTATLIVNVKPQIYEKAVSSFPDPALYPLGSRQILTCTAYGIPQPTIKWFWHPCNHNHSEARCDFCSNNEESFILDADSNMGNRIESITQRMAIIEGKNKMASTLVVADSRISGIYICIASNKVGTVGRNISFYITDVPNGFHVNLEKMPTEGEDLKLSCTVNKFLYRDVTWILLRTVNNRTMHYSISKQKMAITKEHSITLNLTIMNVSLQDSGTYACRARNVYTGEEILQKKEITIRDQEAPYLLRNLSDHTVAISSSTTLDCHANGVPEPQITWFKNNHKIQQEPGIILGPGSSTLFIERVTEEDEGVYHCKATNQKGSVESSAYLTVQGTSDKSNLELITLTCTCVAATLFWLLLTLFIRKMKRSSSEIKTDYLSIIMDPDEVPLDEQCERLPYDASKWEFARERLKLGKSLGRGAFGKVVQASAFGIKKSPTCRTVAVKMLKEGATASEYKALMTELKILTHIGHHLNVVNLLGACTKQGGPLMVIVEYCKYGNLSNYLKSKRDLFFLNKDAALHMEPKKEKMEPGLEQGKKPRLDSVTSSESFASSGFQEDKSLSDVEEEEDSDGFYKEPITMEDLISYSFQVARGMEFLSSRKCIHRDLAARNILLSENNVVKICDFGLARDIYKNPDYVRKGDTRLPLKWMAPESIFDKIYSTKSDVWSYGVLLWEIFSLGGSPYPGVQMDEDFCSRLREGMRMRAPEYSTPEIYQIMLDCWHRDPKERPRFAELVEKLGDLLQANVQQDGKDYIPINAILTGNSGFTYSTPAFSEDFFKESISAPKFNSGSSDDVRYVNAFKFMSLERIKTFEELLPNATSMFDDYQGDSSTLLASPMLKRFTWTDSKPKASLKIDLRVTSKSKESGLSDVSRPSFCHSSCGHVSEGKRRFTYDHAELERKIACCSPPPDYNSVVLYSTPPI
Sequence of Serine/threonine-protein kinase DCLK3 (Homo sapiens) (Q9C098 whole entry): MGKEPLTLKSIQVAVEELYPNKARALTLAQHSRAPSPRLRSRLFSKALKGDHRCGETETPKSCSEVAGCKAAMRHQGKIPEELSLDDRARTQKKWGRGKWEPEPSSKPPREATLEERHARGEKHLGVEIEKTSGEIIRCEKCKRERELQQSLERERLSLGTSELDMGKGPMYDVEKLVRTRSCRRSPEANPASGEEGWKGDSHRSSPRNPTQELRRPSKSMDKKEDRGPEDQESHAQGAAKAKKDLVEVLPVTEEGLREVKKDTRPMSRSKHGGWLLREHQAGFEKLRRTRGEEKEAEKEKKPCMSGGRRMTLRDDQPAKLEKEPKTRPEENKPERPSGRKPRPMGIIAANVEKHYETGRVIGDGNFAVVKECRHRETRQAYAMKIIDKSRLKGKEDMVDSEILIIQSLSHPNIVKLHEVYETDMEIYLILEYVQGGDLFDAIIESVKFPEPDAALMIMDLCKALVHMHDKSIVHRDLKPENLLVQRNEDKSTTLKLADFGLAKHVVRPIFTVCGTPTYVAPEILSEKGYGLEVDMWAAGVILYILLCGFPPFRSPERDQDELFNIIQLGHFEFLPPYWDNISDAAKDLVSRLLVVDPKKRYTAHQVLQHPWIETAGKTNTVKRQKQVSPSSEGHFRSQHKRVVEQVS
Sequence of Receptor-type tyrosine-protein kinase FLT3 (Homo sapiens) (P36888 whole entry): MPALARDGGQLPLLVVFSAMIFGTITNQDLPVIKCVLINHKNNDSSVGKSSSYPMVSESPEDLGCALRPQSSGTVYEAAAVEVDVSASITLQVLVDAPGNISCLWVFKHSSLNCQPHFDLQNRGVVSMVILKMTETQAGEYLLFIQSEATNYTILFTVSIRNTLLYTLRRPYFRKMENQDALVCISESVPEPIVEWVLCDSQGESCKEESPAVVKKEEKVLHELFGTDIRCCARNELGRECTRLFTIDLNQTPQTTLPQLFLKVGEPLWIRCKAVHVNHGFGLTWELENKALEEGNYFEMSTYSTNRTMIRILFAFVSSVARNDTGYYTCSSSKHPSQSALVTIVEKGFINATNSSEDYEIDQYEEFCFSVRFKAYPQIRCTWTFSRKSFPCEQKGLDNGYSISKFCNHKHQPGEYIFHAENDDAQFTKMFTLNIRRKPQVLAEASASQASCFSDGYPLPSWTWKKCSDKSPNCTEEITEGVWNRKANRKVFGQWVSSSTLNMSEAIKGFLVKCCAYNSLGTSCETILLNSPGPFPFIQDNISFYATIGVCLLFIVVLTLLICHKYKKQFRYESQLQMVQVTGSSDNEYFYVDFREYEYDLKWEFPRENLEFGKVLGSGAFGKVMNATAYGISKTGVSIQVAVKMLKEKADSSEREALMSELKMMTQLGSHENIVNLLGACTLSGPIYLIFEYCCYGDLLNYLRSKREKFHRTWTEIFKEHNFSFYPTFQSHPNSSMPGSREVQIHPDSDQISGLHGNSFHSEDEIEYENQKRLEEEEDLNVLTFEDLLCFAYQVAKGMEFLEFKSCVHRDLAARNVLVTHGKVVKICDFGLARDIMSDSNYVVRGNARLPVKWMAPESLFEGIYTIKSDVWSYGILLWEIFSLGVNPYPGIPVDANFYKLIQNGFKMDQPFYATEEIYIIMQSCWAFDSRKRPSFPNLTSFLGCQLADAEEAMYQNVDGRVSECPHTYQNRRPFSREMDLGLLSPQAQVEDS
Sequence of Rhodopsin kinase GRK7 (Homo sapiens) (Q8WTQ7 whole entry): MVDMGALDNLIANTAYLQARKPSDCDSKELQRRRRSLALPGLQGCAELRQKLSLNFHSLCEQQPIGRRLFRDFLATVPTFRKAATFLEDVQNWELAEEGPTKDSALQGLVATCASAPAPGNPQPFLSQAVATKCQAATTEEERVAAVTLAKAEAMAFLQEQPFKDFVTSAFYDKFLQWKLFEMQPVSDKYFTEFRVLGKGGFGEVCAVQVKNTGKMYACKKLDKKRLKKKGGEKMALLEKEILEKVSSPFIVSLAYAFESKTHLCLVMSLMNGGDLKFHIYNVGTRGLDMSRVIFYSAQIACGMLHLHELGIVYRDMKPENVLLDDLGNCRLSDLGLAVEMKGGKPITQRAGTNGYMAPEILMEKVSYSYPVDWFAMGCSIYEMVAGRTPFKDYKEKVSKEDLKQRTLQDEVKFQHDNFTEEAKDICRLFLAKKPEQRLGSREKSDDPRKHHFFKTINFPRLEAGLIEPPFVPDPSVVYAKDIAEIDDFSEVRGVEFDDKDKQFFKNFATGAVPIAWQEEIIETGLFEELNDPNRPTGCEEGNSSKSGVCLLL
Sequence of Serine/threonine-protein kinase PLK4 (Homo sapiens) (O00444 whole entry): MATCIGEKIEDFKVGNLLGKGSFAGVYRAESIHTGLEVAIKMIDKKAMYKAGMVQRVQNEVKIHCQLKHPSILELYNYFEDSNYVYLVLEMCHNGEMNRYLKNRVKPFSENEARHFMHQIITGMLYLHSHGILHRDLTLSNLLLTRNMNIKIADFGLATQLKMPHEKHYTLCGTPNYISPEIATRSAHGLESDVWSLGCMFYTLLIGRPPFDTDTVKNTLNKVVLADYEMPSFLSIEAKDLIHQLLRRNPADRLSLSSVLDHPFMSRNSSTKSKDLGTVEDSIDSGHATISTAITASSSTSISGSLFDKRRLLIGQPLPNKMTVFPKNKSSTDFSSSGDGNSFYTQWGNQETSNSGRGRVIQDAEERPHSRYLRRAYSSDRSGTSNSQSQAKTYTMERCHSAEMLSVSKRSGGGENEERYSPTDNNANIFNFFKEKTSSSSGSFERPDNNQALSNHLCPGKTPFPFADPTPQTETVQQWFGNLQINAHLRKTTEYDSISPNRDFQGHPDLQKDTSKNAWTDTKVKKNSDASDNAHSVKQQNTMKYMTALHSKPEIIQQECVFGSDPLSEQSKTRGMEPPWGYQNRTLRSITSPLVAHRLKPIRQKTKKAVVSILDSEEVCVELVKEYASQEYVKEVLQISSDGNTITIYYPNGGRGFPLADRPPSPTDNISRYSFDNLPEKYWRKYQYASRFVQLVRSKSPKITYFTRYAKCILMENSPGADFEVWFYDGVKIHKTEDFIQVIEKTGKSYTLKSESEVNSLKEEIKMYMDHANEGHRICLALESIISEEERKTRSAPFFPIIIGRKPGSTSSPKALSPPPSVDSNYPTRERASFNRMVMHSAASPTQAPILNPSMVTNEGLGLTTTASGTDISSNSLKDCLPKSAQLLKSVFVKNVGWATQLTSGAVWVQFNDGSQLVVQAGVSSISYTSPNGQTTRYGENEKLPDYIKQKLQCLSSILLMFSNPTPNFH
Sequence of Histamine H1 receptor (Homo sapiens) (P35367 whole entry): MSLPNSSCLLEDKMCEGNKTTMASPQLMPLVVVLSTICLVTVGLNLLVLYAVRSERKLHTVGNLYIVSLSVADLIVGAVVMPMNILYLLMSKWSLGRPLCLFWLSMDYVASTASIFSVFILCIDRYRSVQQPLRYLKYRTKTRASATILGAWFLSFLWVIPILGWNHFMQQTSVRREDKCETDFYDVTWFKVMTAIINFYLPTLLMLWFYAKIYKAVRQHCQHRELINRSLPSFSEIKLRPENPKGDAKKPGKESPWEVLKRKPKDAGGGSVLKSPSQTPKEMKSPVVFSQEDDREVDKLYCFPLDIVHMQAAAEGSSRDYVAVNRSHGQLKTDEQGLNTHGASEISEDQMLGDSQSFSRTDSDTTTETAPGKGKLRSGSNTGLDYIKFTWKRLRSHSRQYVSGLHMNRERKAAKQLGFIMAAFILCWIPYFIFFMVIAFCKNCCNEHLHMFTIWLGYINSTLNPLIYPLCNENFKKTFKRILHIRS

| Compound | residual activity [1] | residual activity [2] | residual activity [3] | residual activity [4] | residual activity [5] | residual activity [6] | residual activity [7] | residual activity [8] | residual activity [9] | % Inhibition of Control Specific Binding (Mean n=2) [10] | % Inhibition of Control Specific Binding (Mean n=2) [11] | residual activity [12] | residual activity [13] | residual activity [14] | residual activity [15] | residual activity [16] | residual activity [17] | residual activity [18] | residual activity [19] | residual activity [20] | other results |
| --- | --- | --- | --- | --- | --- | --- | --- | --- | --- | --- | --- | --- | --- | --- | --- | --- | --- | --- | --- | --- | --- |
| COc1ccc2c(c1)O[C@@H](c1ccc(OC)c(OC)c1)C[C@H]2NC(=O)C1(c2ccc3c(c2)OC(F)(F)O3)CC1 [A-1596586] | 100% | 95% | 86% | 100% | 100% | 72% | 82% | 84% | 100% | 6.7% | 8.8% | 81% | 90% | 93% | 91% | 100% | 100% | 95% | 90% | 89% | residual activity [21]: 100%; residual activity [22]: 100%; residual activity [23]: 77%; residual activity [24]: 78%; residual activity [25]: 100%; residual activity [26]: 95%; inhibition [27]: 49%; residual activity [28]: 84%; % Inhibition of Control Specific Binding (Mean n=2) [29]: -9.1%; residual activity [30]: 100%; residual activity [31]: 98%; residual activity [32]: 100%; residual activity [33]: 100%; residual activity [34]: 100%; residual activity [35]: 98%; residual activity [36]: 71%; % Inhibition of Control Specific Binding (Mean n=2) [37]: 22.1%; residual activity [38]: 81% |
| COc1ccc2c(c1)O[C@H](c1ccc(OC)c(OC)c1)C[C@@H]2NC(=O)C1(c2ccc3c(c2)OC(F)(F)O3)CC1 [A-1596584] | 91% | 87% | 95% | 100% | 100% | 84% | 95% | 89% | 100% | 4.5% | 2.2% | 81% | 100% | 100% | 100% | 100% | 100% | 99% | 98% | 89% | residual activity [21]: 100%; residual activity [22]: 100%; residual activity [23]: 100%; residual activity [24]: 82%; residual activity [25]: 100%; residual activity [26]: 89%; inhibition [27]: 5.97%; residual activity [28]: 85%; % Inhibition of Control Specific Binding (Mean n=2) [29]: -9%; residual activity [30]: 100%; residual activity [31]: 100%; residual activity [32]: 63%; residual activity [33]: 100%; residual activity [34]: 100%; residual activity [35]: 100%; residual activity [36]: 93%; % Inhibition of Control Specific Binding (Mean n=2) [37]: 13.7%; residual activity [38]: 91% |
